Experimental data reported in PubChem BioAssay AID256 (DTP/NCI, 2004).
Several values for one entry are separate records, joined by “and”; a condition that tells them apart may be missing. Identical values can stand only once. Inconclusive results and toxic doses are left out. The calls were made as follows: active = survival T/C of 150% or more; inactive = T/C below 125% in these data.

System: CD2F1 mice, L1210 leukemia ip, survival T/C
Assay: NCI In Vivo Anticancer Drug Screen. Data for tumor model L1210 Leukemia (intraperitoneal) in CD2F1 (CDF1) mice
Conditions: endpoint: mean survival time, higher = longer survival
Procedure, shortened: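 Antitumor effect is scored in animals hosting a serially transplanted tumor. Values compare compound-dosed animals against vehicle-only controls as a simple quotient.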

Measured: T/C

Cc1cc(NCCCCCCNc2cc(C)nc3ccc(N)cc23)c2cc(N)ccc2n1
inactive: dose: 0.16 mg/kg/injection, schedule: Q08HX006 (iv), vehicle: water 103 % of control | dose: 0.31 mg/kg/injection, schedule: Q08HX006 (iv), vehicle: water 104 % of control | dose: 0.4 mg/kg/injection, schedule: Q08HX009 (ip), vehicle: water 105 % of control | dose: 0.6 mg/kg/injection, schedule: Q01DX009 (ip), vehicle: water 98 % of control | dose: 0.6 mg/kg/injection, schedule: Q08HX009 (iv), vehicle: water 88 % of control | dose: 0.63 mg/kg/injection, schedule: Q08HX006 (iv), vehicle: water 92 % of control | dose: 0.8 mg/kg/injection, schedule: Q08HX009 (ip), vehicle: water 101 % of control | dose: 1.1 mg/kg/injection, schedule: Q01DX005 (iv), vehicle: water 104 % of control | dose: 1.2 mg/kg/injection, schedule: Q01DX009 (ip), vehicle: water 97 % of control | dose: 1.25 mg/kg/injection, schedule: Q08HX006 (iv), vehicle: water 103 % of control | dose: 1.3 mg/kg/injection, schedule: Q08HX009 (iv), vehicle: water 94 % of control | dose: 1.4 mg/kg/injection, schedule: Q01DX005 (iv), vehicle: water 98 % of control | dose: 1.56 mg/kg/injection, schedule: Q01DX009 (ip), vehicle: water 103 % of control and 111 % of control | dose: 1.6 mg/kg/injection, schedule: Q08HX009 (ip), vehicle: water 104 % of control | dose: 1.9 mg/kg/injection, schedule: Q01DX005 (iv), vehicle: water 101 % of control | dose: 1.9 mg/kg/injection, schedule: Q08HX009 (iv), vehicle: saline with Tween-80 92 % of control | dose: 2.4 mg/kg/injection, schedule: Q01DX009 (ip), vehicle: saline with Tween-80 114 % of control and 116 % of control | dose: 2.4 mg/kg/injection, schedule: Q01DX009 (ip), vehicle: water 111 % of control | dose: 2.5 mg/kg/injection, schedule: Q01DX005 (iv), vehicle: water 103 % of control | dose: 2.5 mg/kg/injection, schedule: Q08HX006 (iv), vehicle: water 105 % of control | dose: 2.5 mg/kg/injection, schedule: Q08HX009 (ip), vehicle: saline with Tween-80 119 % of control | dose: 2.5 mg/kg/injection, schedule: Q08HX009 (iv), vehicle: water 93 % of control | dose: 2.53 mg/kg/injection, schedule: Q01DX005 (iv), vehicle: water 95 % of control | dose: 2.58 mg/kg/injection, schedule: Q01DX005 (iv), vehicle: saline with Tween-80 101 % of control | dose: 3.0 mg/kg/injection, schedule: Q01DX009 (ip), vehicle: water 95 % of control and 107 % of control | dose: 3.13 mg/kg/injection, schedule: Q01DX009 (ip), vehicle: water 113 % of control and 124 % of control | dose: 3.2 mg/kg/injection, schedule: Q08HX009 (ip), vehicle: water 112 % of control | dose: 3.38 mg/kg/injection, schedule: Q01DX005 (iv), vehicle: water 100 % of control | dose: 3.38 mg/kg/injection, schedule: Q01DX009 (sc), vehicle: water 98 % of control | dose: 3.4 mg/kg/injection, schedule: Q01DX005 (iv), vehicle: water 101 % of control | dose: 3.44 mg/kg/injection, schedule: Q01DX009 (ip), vehicle: saline with Tween-80 114 % of control | dose: 3.44 mg/kg/injection, schedule: Q01DX009 (sc), vehicle: saline with Tween-80 100 % of control | dose: 3.7 mg/kg/injection, schedule: Q01DX009 (ip), vehicle: saline with Tween-80 117 % of control | dose: 3.8 mg/kg/injection, schedule: Q08HX006 (iv), vehicle: saline with Tween-80 101 % of control | dose: 3.8 mg/kg/injection, schedule: Q08HX009 (iv), vehicle: saline with Tween-80 88 % of control | dose: 4.51 mg/kg/injection, schedule: Q01DX009 (ip), vehicle: water 113 % of control | dose: 4.59 mg/kg/injection, schedule: Q01DX009 (ip), vehicle: saline with Tween-80 115 % of control | dose: 4.59 mg/kg/injection, schedule: Q01DX009 (sc), vehicle: saline with Tween-80 96 % of control | dose: 4.7 mg/kg/injection, schedule: Q01DX009 (ip), vehicle: saline with Tween-80 121 % of control | dose: 4.8 mg/kg/injection, schedule: Q01DX009 (ip), vehicle: water 114 % of control | dose: 5.0 mg/kg/injection, schedule: Q08HX006 (iv), vehicle: water 100 % of control | dose: 5.3 mg/kg/injection, schedule: Q01DX009 (ip), vehicle: water 114 % of control and 97 % of control | dose: 6.12 mg/kg/injection, schedule: Q01DX005 (iv), vehicle: saline with Tween-80 97 % of control | dose: 6.12 mg/kg/injection, schedule: Q01DX009 (ip), vehicle: saline with Tween-80 119 % of control | dose: 6.12 mg/kg/injection, schedule: Q01DX009 (sc), vehicle: saline with Tween-80 97 % of control
